{"source": "patent US8841425B2", "about": "“Cytotoxic agents comprising new maytansinoids” (ImmunoGen, Inc., priority 2003, dated 2014)", "key": {"[1]": {"system": "CD19-negative cell line (Colo 205)", "assay": "MTT-based cytotoxicity of huB4-DM4, Colo 205 cells", "type": "cell-based, human", "conditions": "MTT-based assay, non-target Colo 205 cells, FIG. 12", "method": "(§1) The cytotoxicity of huB4-DM4 toward CD19-expressing cells (Ramos) compared to a CD19-negative cell line (Colo 205) was tested using an MTT-based assay, where cell killing activity is determined by quantifying the number of viable cells that remain following treatment with conjugate. Viable cell number is determined by spectrophotometric quantitation following incubation of the cells with the vital dye MTT."}, "CD19": {"molecular_target": "T1, CD19 (Homo sapiens, UniProt P15391)", "T1 sequence (P15391 20-556)": "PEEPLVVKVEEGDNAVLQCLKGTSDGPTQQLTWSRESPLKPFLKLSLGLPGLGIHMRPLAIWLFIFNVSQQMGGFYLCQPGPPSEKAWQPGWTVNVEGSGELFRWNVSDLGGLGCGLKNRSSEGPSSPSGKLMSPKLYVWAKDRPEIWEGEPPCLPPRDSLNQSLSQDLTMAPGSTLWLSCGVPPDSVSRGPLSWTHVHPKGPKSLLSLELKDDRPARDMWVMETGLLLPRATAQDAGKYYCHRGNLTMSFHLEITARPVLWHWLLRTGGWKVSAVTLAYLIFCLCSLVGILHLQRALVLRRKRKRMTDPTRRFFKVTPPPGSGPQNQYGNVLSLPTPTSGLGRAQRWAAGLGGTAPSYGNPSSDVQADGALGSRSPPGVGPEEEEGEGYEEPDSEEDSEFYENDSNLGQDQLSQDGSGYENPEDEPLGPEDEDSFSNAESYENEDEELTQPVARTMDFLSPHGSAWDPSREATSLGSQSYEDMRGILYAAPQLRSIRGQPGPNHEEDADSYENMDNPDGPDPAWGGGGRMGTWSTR", "assay": "Binding affinity of huB4 conjugate by flow cytometry", "conditions": "after conjugation", "method": "A solution of huB4 antibody at a concentration of 20 mg/mL was incubated for 1.5 h with an 8-fold molar excess of SSNPB [sulfosuccinimidyl 4-(5′-nitro-2′-pyridyldithio)butyrate] in 50 mM potassium phosphate buffer, pH 6.5 containing 2 mM ethylenediaminetetraacetic acid (buffer A) with 5% dimethylacetamide. The modified antibody was purified by passage through a Sephadex G25 gel filtration column equilibrated in buffer A and the concentration of the purified antibody was determined spectrophotometrically using the extinction coefficient for the antibody at 280 nm (199,560 M^−1 cm^−1). The modified antibody was diluted to 8 mg/mL with buffer A and incubated for 3 h at ambient temperature with a 1.7-fold molar excess of DM4, which was added to the reaction mixture as a stock solution in dimethylacetamide (final concentration of dimethylacetamide was 3% v/v). […] The concentration of conjugate was determined spectrophotometrically using the know extinction coefficients for antibody (ε280 nm: 199,560 M^−1 cm^−1; ε252 nm: 67,850 M^−1 cm^−1) and DM4 (ε280 nm=5,700 M^−1 cm^−1, ε252 […]=26,790 M^−1 cm^−1). […] The amount of drug associated with the antibody that was not linked covalently (free drug) was determined by HPLC analysis and was approximately 2% of the total linked drug."}, "[2]": {"system": "CD19-positive Ramos human tumor cells", "assay": "MTT-based cytotoxicity of huB4-DM4, Ramos cells", "type": "cell-based", "conditions": "MTT-based assay, FIG. 12", "method": "as §1"}, "[3]": {"system": "human Ramos tumor xenografts", "assay": "In vivo efficacy of huB4-DM4 against Ramos xenografts in SCID mice", "set-up": "species or system mouse", "method": "The efficacy of huB-DM4 in vivo was determined using SCID mice bearing established human Ramos tumor xenografts. Ramos cells were injected subcutaneously and tumors were allowed to grow to an average size of 100 mm^3. Dosage is expressed as μg DM4 in the conjugate, which corresponds to an antibody dose of approximately 44 μg antibody per μg of DM4. Tumor volume was measured as an indication of treatment efficacy and mouse body weight was monitored to indicate toxicity due to treatment. […] Animals remain without measurable disease for about 35 days in the […] treatment group, and for more than 55 days in the two highest dose groups."}}}
{"substance": "huB4-DM4: huB4 (anti-CD19) antibody modified with SSNPB and linked to DM4, average of 4.0 DM4 molecules per antibody molecule", "values": [{"measurement": "toxicity toward CD19-negative cells", "setting": "[1]", "value": "No significant toxicity"}, {"measurement": "binding affinity compared with unmodified antibody", "setting": "CD19", "value": "comparable to the unmodified antibody"}, {"measurement": "cell killing activity toward Ramos cells", "setting": "[2]", "value": "potent cell killing activity"}, {"measurement": "toxicity as judged by changes in body weight", "setting": "[3]; SCID mice, single i.v. injection, FIG. 13b", "value": "very little if any toxicity"}, {"measurement": "tumor response", "setting": "[3]; SCID mice, single i.v. injection, doses above 50 μg/kg", "value": "complete regression of the tumors in all animals"}, {"measurement": "time without measurable disease", "setting": "[3]; single i.v. injection, 100 mg/kg treatment group", "value": "about 35 days"}, {"measurement": "time without measurable disease", "setting": "[3]; single i.v. injection, two highest dose groups", "value": "more than 55 days"}, {"measurement": "anti-tumor activity", "setting": "[3]; subcutaneous Ramos tumor model, FIG. 13a", "value": "high anti-tumor activity in a dose-dependent manner"}, {"measurement": "tumor response", "setting": "[3]; subcutaneous Ramos tumor model, doses that are non-toxic, FIG. 13a,b", "value": "Complete tumor regressions and cures"}]}
